For assay [1], the system named is FF2441 normal human fibroblasts. As to the kind of experiment: MTS assay viability IC50, normal fibroblasts. It is filed as cell-based. The method, then: (§1) The efficacy of leelamine to kill other cancer types is measured and the IC50 for cell lines derived from carcinomas of breast, lung, prostate, connective tissue, pancreas and colon determined. The MTS assay as described in Sharma, A. et al., Clin Cancer Res, 2009, 15:1674-85; and Madhunapantula, S. V. et al., Mol Cancer Ther, 2008, 7:1297-308 is used to establish the IC50 at 24, 48 and 72 hours of leelamine treatment for normal human epidermal melanocytes (FOM103), normal skin fibroblast cells (FF2441), normal skin keratinocytes (HFK) and compared to melanocytic lesion cells from the radial-, vertical- and metastatic melanoma stages. 5×10^3 cells per well in 100 μL of media are plated and grown in a 96-well plate for 48 to 72 hours and treated with either DMSO vehicle control or 0.62 to 40 μmol/L of leelamine for 24, 48 or 72 hours. IC50 values for each compound in μmol/L for respective cell lines are measured from three independent experiments using GraphPad Prism version 4.01 (GraphPad Software, La Jolla, Calif.). Leelamine is found to be not toxic to normal cells and effective to kill melanoma cells as well as non-melanoma cancer cells as shown in Table 1 in FIG. 20. Leelamine is 3- to 4-fold more specific at killing metastatic melanoma than normal cells, supporting cancer therapeutic utility at concentrations<2 μmol/L.
5×10^3 cells per well in 100 μL of media are plated and grown in a 96-well plate for 48 to 72 hours and treated with either DMSO vehicle control or 0.62 to 40 μmol/L of leelamine for 24, 48 or 72 hours. IC50 values for each compound in μmol/L for respective cell lines are measured from three independent experiments using GraphPad Prism version 4.01 (GraphPad Software, La Jolla, Calif.). […]
(§2) Dehydroabietylamine, its N-substituted derivatives and the corresponding dihydroabietylamine and its N-substituted derivatives are tested for their capability to inhibit cell growth of cancer cell lines, including melanoma (UACC 903, 1205Lu), breast (MCF-7), fibrosarcoma (HT-1080), colon (Caco-2), and prostate (PC-3) cancer cell lines. Viability and IC50 of normal human fibroblasts and cell lines from melanoma and other malignancies following treatment with all the agents are measured using the MTS assay (Promega, Madison, Wis.). Human fibroblast FF2441 cells, metastatic melanoma cell lines 1205 Lu and UACC 903 as well as cancer cell lines representing sarcoma (HT-1080), prostate (PC-3, LNCaP), breast (MCF-7) and lung (A-549) are maintained in DMEM (Invitrogen, Carlsbad, Calif.) supplemented with 10% FBS (Hyclone, Logan, Utah) in a 5% CO2 atmosphere, humidified 37° C. incubator. 5×10^3 cells per well in 100 μL of media are plated and grown in a 96-well plate for 48 to 72 h and treated with either DMSO vehicle control or 0.62 to 40 μmol/L for 24, 48 or 72 h. IC50 values for each compound in […] for respective cell lines are measured from three independent experiments using GraphPad Prism version 4.01 (GraphPad Software, La Jolla, Calif.). FIG. 52 is a graph showing IC50 values for leelamine and compounds 4a, 4b and 5a in treated fibroblasts (FF2441) compared to melanoma cells. Selectivity ratio here is defined as ratio of activity against fibroblasts compared to activity against melanoma cells. Leelamine is relatively selective with a ratio of >6 and >4 for UACC903 and 1205Lu melanoma cells. The selectivity ratio of compound 4a is ˜4 and ˜3 for UACC903 and 1205Lu and for compound 4b is ˜4 for both cell lines. The selectivity ratio of compound 5a is ˜4 for UACC903 and >2 for 1205Lu cells.

The subject of assay [2] is UACC 903 metastatic melanoma cells. As to the kind of experiment: MTS assay viability IC50, UACC 903. It is filed as cell-based, human. The following applies: for IC50: Homo sapiens, UACC-903. The method, then:
as §1
(§3) 5×10^3 cells per well in 100 μL of media are plated and grown in a 96-well plate for 48 to 72 hours and treated with either DMSO vehicle control or 0.62 to 40 μmol/L of leelamine for 24, 48 or 72 hours. IC50 values for each compound in μmol/L for respective cell lines are measured from three independent experiments using GraphPad Prism version 4.01 (GraphPad Software, La Jolla, Calif.).
(§4) The IC50 and effect of liposomal preparations of leelamine on viability of normal human melanocytes, fibroblasts and melanoma cells UACC 903 and 1205 Lu are measured using the MTS assay (Promega, Madison, Wis.). Empty liposomes or liposomes containing abietic acid are used as controls. 5×10^3 cells per well in 100 μL of media are plated and grown in a 96-well plate for 48 or 72 hours for melanoma and normal cell lines, respectively. The cells are then treated with 0.62 to 40 μmol/L of liposome alone, a liposomal preparation of abietic acid, or with Nanolipolee-007 for 24 hours. IC50 values for each liposome in μmol/L for respective cell lines are measured from three independent experiments using GraphPad Prism version 4.01 (GraphPad Software, La Jolla, Calif.). Nanolipolee-007 retains the growth inhibitory activity of leelamine in killing melanoma cells in culture and specifically kills melanoma cells compared to normal cells, FIG. 24.
as §2, with “FIG. 52 is a graph showing IC50 values for leelamine and compounds 4a, 4b and 5a in treated fibroblasts (FF2441) compared to melanoma cells. Selectivity ratio here is defined as ratio of activity against fibroblasts compared to activity against melanoma cells. Leelamine is relatively selective with a ratio of >6 and >4 for UACC903 and 1205Lu melanoma cells. The selectivity ratio of compound 4a is ˜4 and ˜3 for UACC903 and 1205Lu and for compound 4b is ˜4 for both cell lines. The selectivity ratio of compound 5a is ˜4 for UACC903 and >2 for 1205Lu cells.” left out

The subject of assay [3] is 1205 Lu metastatic melanoma cells. In words: MTS assay viability IC50, 1205 Lu. It is filed as cell-based, human. The settings on record: for IC50: Homo sapiens, 1205Lu. The method, then:
as §1, §3, §4
as §2, with “FIG. 52 is a graph showing IC50 values for leelamine and compounds 4a, 4b and 5a in treated fibroblasts (FF2441) compared to melanoma cells. Selectivity ratio here is defined as ratio of activity against fibroblasts compared to activity against melanoma cells. Leelamine is relatively selective with a ratio of >6 and >4 for UACC903 and 1205Lu melanoma cells. The selectivity ratio of compound 4a is ˜4 and ˜3 for UACC903 and 1205Lu and for compound 4b is ˜4 for both cell lines. The selectivity ratio of compound 5a is ˜4 for UACC903 and >2 for 1205Lu cells.” left out
A general note: Formazan colour is commonly taken as a measure of viable cells.

Assay [4] concerns melanoma cell lines (UACC 903, 1205Lu). In words: MTS assay, melanoma cell lines (cell line not given). It is filed as cell-based, human. The settings on record: Homo sapiens; Example 8. The method, then: The mechanistic basis of leelamine's activity to inhibit melanoma cell growth is determined by examining the effect of leelamine on 1) cell viability using the MTS assay; 2) proliferation using a BrdU incorporation assay; 3) apoptosis using an assay for caspase-3/7 activity; and 4) cell cycle analysis. The MTS assay as described in Sharma, A. et al., Clin Cancer Res, 2009, 15:1674-85; and Madhunapantula, S. V. et al., Mol Cancer Ther, 2008, 7:1297-308 is used to assay cell viability. Rates of proliferation and apoptosis are measured by seeding 5×10^3 cells in 96-well plates, followed by treatment with 0.62 to 10 μmol/L of leelamine for 24 hours. Proliferating and apoptotic cells are quantified using a colorimetric cell proliferation ELISA BrdU kit (Roche diagnostics, Indianapolis, Ind.) or Apo-ONE Homogenous caspase-3/7 assay kit (Promega, Madison, Wis.), respectively, as described in Sharma, A. et al., Clin Cancer Res, 2009, 15:1674-85; and Madhunapantula, S. V. et al., Mol Cancer Ther, 2008, 7:1297-308.
as §2

The subject of assay [5] is Breast (MCF-7) cancer cell line. In words: MTS assay viability IC50, MCF-7. The format is cell-based. The following applies: Homo sapiens, MCF7; Table 5. The method, then: as §2
For assay [6], the system named is Prostate (PC-3) cancer cell line. In words: MTS assay viability IC50, PC-3. It is filed as cell-based. The settings on record: Table 5. The method, then: as §2
In assay [7] the test system is Prostate (LnCap) cancer cell line. As to the kind of experiment: MTS assay viability IC50, LnCap. The format is cell-based. The following applies: Homo sapiens, Table 5. The method, then: as §2
For assay [8], the system named is Fibrosarcoma (HT-1080) cancer cell line. As to the kind of experiment: MTS assay viability IC50, HT-1080. The format is cell-based. The following applies: Homo sapiens, Table 5, read-out: IC50 Fibro Sarcoma (HT-1080). The method, then:
as §2

The test system of a further assay is cancer cell line. In words: MTS assay viability IC50, A-459. It is filed as cell-based. The settings on record: A459; Table 5; read-out: IC50 Liver (A-459). On the procedure:
as §2

Setting [9] is: Table 6, read-out: IC50 Metastatic melanoma UACC 903.
The mark [10] stands for this setting: Table 7, read-out: IC50 (UACC903).
Where [11] appears, read: Table 6, read-out: IC50 Metastatic melanoma 1205 Lu.
[12] abbreviates: activity against fibroblasts FF2441 compared to melanoma cells.

Each structure is given as a SMILES string. Where two headings read alike, the source gives them in different places. Where only a bound is given, the exact number is not on record here.

Turning to `CNC(=O)[C@]1(C)CCC[C@]2(C)C3CCC(C(C)C)=CC3=CCC21` (stereo partly drawn) [Compound 3b, (1R,4aR)-N,1,4a-trimethyl-7-(propan-2-yl)-1,2,3,4,4a,4b,5,6,10,10a-decahydrophenanthrene-1-carboxamide], the IC50 is more than 100 µM in assay [1] (Table 6, read-out: IC50 Normal fibroblast FF2441); more than 100 µM in assay [2] (setting [9]); more than 100 µM in assay [2] (setting [10]); more than 100 µM in [3] (setting [11]); more than 100 µM in [4].
On to `CNC[C@]1(C)CCC[C@]2(C)C3CCC(C(C)C)=CC3=CCC12` (stereo partly drawn) [Compound 4b, {[(1R,4aR)-1,4a-dimethyl-7-(propan-2-yl)-1,2,3,4,4a,4b,5,6,10,10a-decahydrophenanthren-1-yl]methyl}(methyl)amine], for which the IC50 in assay [1] (Homo sapiens, FF2441, Table 5, read-out: IC50 Fibroblast FF2441) came to 9.33 ± 1.27 µM; in assay [2] (Example 8, read-out: IC50 UACC 903), 2.36 µM; in assay [2] (Table 4, read-out: IC50 Metastatic Melanoma Cell line UACC903), 2.36 ± 0.25 µM; in [2] (Table 5, read-out: IC50 Melanoma (UACC903)), 2.36 ± 0.25 µM; in assay [2] (setting [9]), 2.36 ± 0.25 µM; in assay [2] (setting [10]), 2.36 µM. For the same compound, the IC50 came out at 2.38 µM in assay [3] (Example 8, read-out: IC50 1205Lu); 2.38 ± 0.14 µM in assay [3] (Table 4, read-out: IC50 Metastatic Melanoma Cell line 1205Lu); 2.38 ± 0.14 µM in [3] (setting [11]); 9.04 ± 2.43 µM in assay [5]; 10.7 ± 0.87 µM in assay [6]; 22.4 ± 3.31 µM in [7]. For the same compound, the IC50 worked out at 4.54 ± 0.87 µM in assay [8] and 15.3 ± 1.83 µM with cancer cell line. For the same compound, in assay [2] (setting [12]), the “Selectivity ratio, fibroblasts versus UACC903” value is reported as approximately 4. Moreover, the “Selectivity ratio, fibroblasts versus 1205Lu” value in assay [3] (setting [12]) is listed as approximately 4.

Broadly, the IC50 is the concentration that gives 50% inhibition.

The values are drawn from US9839618B2, “Compositions and methods relating to proliferative diseases” (The Penn State Research Foundation, priority 2010, dated 2017).
